In patent US12514254B2, “Rosa canina rosehip” (priority 2020, dated 2026):

How the values were obtained:
E. coli = test: Drug-resistance profile towards antibiotics; assay type: cell-based, Escherichia coli; also: key: R = resistant; S = sensitive
Method: (§1) The resistance profiles of the microbial strains mentioned above, evaluated by the inventors and available in the literature, are reported in Tables 4 and 5 [24-26].
(§2) The activity on bacterial or fungal (yeast) strains isolated from biological samples from hospitalized or collection patients was evaluated, the nosocomial derivation of the majority of these strains characterized their resistance to different antimicrobials as reported in Tables 4 and 5.
(§3) In particular: • Klebsiella pneumoniae: represents the main opportunistic microorganism responsible for nosocomial infections and several authors report persistent biofilms of K. pneumoniae in water systems. A clinical isolate (NC5) was used to assess the actual resistance to the preparations. • Escherichia coli: the ATCC 7075 (American Type Culture Collection) strain was used. • Staphylococcus aureus Methicillin-resistantATCC BAA-811 is responsible for several suppurative infections in humans, it is often isolated in patients with prostheses. • Pseudomonas aeruginosa: in the present work a mucoid strain was tested (ATCC 15442) from the American Type Culture Collection (ATCC), known in the literature for its remarkable refractoriness to disinfectants, in particular if the strain is present in sessile form or in a state of mature biofilm. https://www.lgcstandards-atcc.org/products/all/15442.aspx?geo_country=it • Three azole-resistant clinical isolates belonging to the Candida genus were used, in particular: C. albicans clinical isolate BF1, C. krusei clinical isolate BF2 andclinical C. glabrata, isolate BF3 [1,26]. • In all the tests performed, each microbial species was cultivated according to standard growth conditions, in particular: • 1. Mueller-Hinton Agar medium (Microbiol, Uta, Cagliari), was used for the growth of E. coli, S. aureus, P. aeruginosa and K. pneumoniae. The development conditions were: in air at 37° C. • 2. Schaedler Agar and Broth (Microbiol) medium was used for the growth of S. pyogenes and S. mutans. Development conditions: in air and 5% CO2 at 37° C. • 3. Sabouraud Dextrose Agar and Broth (Microbiol), used for C. albicans, C. krusei and C. glabrata. Development conditions: in air at 37° C.

S. aureus MRSA = test: Drug-resistance profile towards antibiotics; assay type: cell-based, Staphylococcus aureus; also: key: R = resistant; S = sensitive
Method: as §1, §2, §3

C. albicans = test: Drug-resistance profile of fungal strains; assay type: cell-based, Candida albicans
Method: as §1, §2
as §3, with “Sabouraud Dextrose Agar and Broth (Microbiol), used for C. albicans, C. krusei and C. glabrata. Development conditions: in air at 37° C.” left out

C. krusei = test: Drug-resistance profile of fungal strains; assay type: cell-based, Candida krusei
Method: as §1, §2
as §3, with “Sabouraud Dextrose Agar and Broth (Microbiol), used for C. albicans, C. krusei and C. glabrata. Development conditions: in air at 37° C.” left out

C. glabrata = test: Drug-resistance profile of fungal strains; assay type: cell-based, Candida glabrata
Method: as §1, §2
as §3, with “Sabouraud Dextrose Agar and Broth (Microbiol), used for C. albicans, C. krusei and C. glabrata. Development conditions: in air at 37° C.” left out

S. pyogenes = test: Drug-resistance profile towards antibiotics; assay type: cell-based, Streptococcus pyogenes; also: key: R = resistant; S = sensitive
Method: as §1, §2, §3

P. aeruginosa = test: Drug-resistance profile towards antibiotics; assay type: cell-based, Pseudomonas aeruginosa; also: key: R = resistant; S = sensitive
Method: as §1, §2, §3

K. pneumoniae = test: Drug-resistance profile towards antibiotics; assay type: cell-based, Klebsiella pneumoniae; also: key: R = resistant; S = sensitive
Method: as §1, §2, §3

Compound | Drug-resistance profile (S. aureus MRSA) | Drug-resistance profile (S. pyogenes) | Drug-resistance profile (P. aeruginosa) | Drug-resistance profile (K. pneumoniae) | also measured
CO/N=C(\C(=O)N[C@@H]1C(=O)N2C(C(=O)O)=C(COC(C)=O)CS[C@H]12)c1csc(N)n1 [Cefotaxime] |  |  |  |  | Drug-resistance profile (E. coli): S
CCO/N=C(\C(=O)N[C@@H]1C(=O)N2C(C(=O)[O-])=C(Sc3nc(-c4cc[n+](C)cc4)cs3)CS[C@H]12)c1nsc(N)n1 [Ceftaroline] | S |  |  |  | 
C[C@@H](c1ncncc1F)[C@](O)(Cn1cncn1)c1ccc(F)cc1F [Voriconazole] |  |  |  |  | Drug-resistance profile (C. albicans; VRC reference values): R (VRC: R > 4 μg/mL); Drug-resistance profile (C. krusei; VRC reference values): R (VRC: R > 4 μg/mL); Drug-resistance profile (C. glabrata; VRC reference values): R (VRC: R > 4 μg/mL)
CN[C@H](CC(C)C)C(=O)N[C@H]1C(=O)N[C@@H](CC(N)=O)C(=O)N[C@H]2C(=O)N[C@H]3C(=O)N[C@H](C(=O)N[C@H](C(=O)O)c4cc(O)cc(O)c4-c4cc3ccc4O)[C@H](O)c3ccc(c(Cl)c3)Oc3cc2cc(c3O[C@@H]2O[C@H](CO)[C@@H](O)[C@H](O)[C@H]2O[C@H]2C[C@](C)(N)[C@H](O)[C@H](C)O2)Oc2ccc(cc2Cl)[C@H]1O [Vancomycin] | S | S |  |  | 
C[C@H]1COc2c(N3CCN(C)CC3)c(F)cc3c(=O)c(C(=O)O)cn1c23 [Levofloxacin] | S | S |  |  | 
Colistin |  |  | S | S | 
CC(=O)NC[C@H]1CN(c2ccc(N3CCOCC3)c(F)c2)C(=O)O1 [Linezolid] | S | S |  |  | 
CO/N=C(\C(=O)N[C@@H]1C(=O)N2C(C(=O)[O-])=C(C[N+]3(C)CCCC3)CS[C@H]12)c1csc(N)n1 [Cefepime] |  |  | S | S | 
Amoxicillin/ac. Clavulanic |  |  |  |  | Drug-resistance profile (E. coli): R
CN(C)[C@@H]1C(O)=C(C(N)=O)C(=O)[C@@]2(O)C(O)=C3C(=O)c4c(O)cccc4[C@@](C)(O)[C@H]3C[C@@H]12 [Tetracycline] | S |  |  |  | 
O=C(O)c1cn(C2CC2)c2cc(N3CCNCC3)c(F)cc2c1=O [Ciprofloxacin] |  |  | R | S | 
CC1(C)S[C@@H]2[C@H](NC(=O)Cc3ccccc3)C(=O)N2[C@H]1C(=O)O [Benzylpenicillin] | R |  |  |  | 
OC(Cn1cncn1)(Cn1cncn1)c1ccc(F)cc1F [Fluconazole] |  |  |  |  | Drug-resistance profile (C. albicans; FLC reference values): R (FLC: R > 64 μg/mL); Drug-resistance profile (C. krusei; FLC reference values): R (FLC: R > 64 μg/mL); Drug-resistance profile (C. glabrata; FLC reference values): R (FLC: R > 64 μg/mL)
CC(=O)N1CCN(c2ccc(OCC3COC(Cn4ccnc4)(c4ccc(Cl)cc4Cl)O3)cc2)CC1 (stereo not shown) [Ketoconazole] |  |  |  |  | Drug-resistance profile (C. albicans; KTC reference values): R (KTC: R > 1 μg/mL); Drug-resistance profile (C. krusei; KTC reference values): R (KTC: R > 1 μg/mL); Drug-resistance profile (C. glabrata; KTC reference values): R (KTC: R > 1 μg/mL)
C[C@@H](O)[C@H]1C(=O)N2C(C(=O)O)=C(S[C@@H]3CN[C@H](C(=O)Nc4cccc(C(=O)O)c4)C3)[C@H](C)[C@H]12 [Ertapenem] |  |  | R | R | Drug-resistance profile (E. coli): S
CC[C@H]1OC(=O)[C@H](C)[C@@H](O[C@H]2C[C@@](C)(OC)[C@@H](O)[C@H](C)O2)[C@H](C)[C@@H](O[C@@H]2O[C@H](C)C[C@H](N(C)C)[C@H]2O)[C@](C)(O)C[C@@H](C)C(=O)[C@H](C)[C@@H](O)[C@]1(C)O [Erythromycin] | R | S |  |  | 

Compound | Drug-resistance profile (S. aureus MRSA) | Drug-resistance profile (S. pyogenes) | Drug-resistance profile (P. aeruginosa) | Drug-resistance profile (K. pneumoniae) | also measured
C[C@@H](O)[C@H]1C(=O)N2C(C(=O)O)=C(SCCN=CN)C[C@H]12 [Imipenem] |  |  | S | S | 
CCC[C@@H]1C[C@@H](C(=O)N[C@@H]([C@H]2O[C@H](SC)[C@H](O)[C@@H](O)[C@H]2O)[C@H](C)Cl)N(C)C1 [Clindamycin] | S | S |  |  | 
CC(=O)O[C@H]1C[C@@]2(C)[C@@H](C[C@@H](O)[C@H]3[C@@]4(C)CC[C@@H](O)[C@@H](C)[C@@H]4CC[C@@]32C)/C1=C(\CCC=C(C)C)C(=O)O [Fusidic acid] | S | S |  |  | 
Cc1onc(-c2ccccc2)c1C(=O)N[C@@H]1C(=O)N2[C@@H]1SC(C)(C)[C@@H]2C(=O)O [Oxacillin] | S | R |  |  | 
CCCCCCCCCC(=O)N[C@@H](Cc1c[nH]c2ccccc12)C(=O)N[C@H](CC(N)=O)C(=O)N[C@@H](CC(=O)O)C(=O)N[C@@H]1C(=O)NCC(=O)N[C@@H](CCCN)C(=O)N[C@@H](CC(=O)O)C(=O)N[C@H](C)C(=O)N[C@@H](CC(=O)O)C(=O)NCC(=O)N[C@H](CO)C(=O)N[C@@H]([C@H](C)CC(=O)O)C(=O)N[C@@H](CC(=O)c2ccccc2N)C(=O)O[C@@H]1C [Daptomycin] | S |  |  |  | 
Teicoplanin | S |  |  |  | 
C[C@@H]1O[C@@H]1P(=O)(O)O [Fosfomycin] |  |  | R | S | 
Trimethoprim-sulfamethoxazole | S | R | R | R | 
CO[C@H]1/C=C/O[C@@]2(C)Oc3c(C)c(O)c4c(O)c(c(/C=N/N5CCN(C)CC5)c(O)c4c3C2=O)NC(=O)/C(C)=C\C=C\[C@H](C)[C@H](O)[C@@H](C)[C@@H](O)[C@@H](C)[C@H](OC(C)=O)[C@@H]1C [Rifampicin] | S | S |  |  | 
Piperacillin-tazobactam |  |  | S | S | Drug-resistance profile (E. coli): S
NCC[C@H](O)C(=O)N[C@@H]1C[C@H](N)[C@@H](O[C@H]2O[C@H](CN)[C@@H](O)[C@H](O)[C@H]2O)[C@H](O)[C@H]1O[C@H]1O[C@H](CO)[C@@H](O)[C@H](N)[C@H]1O [Amikacin] |  |  | S | R | Drug-resistance profile (E. coli): R
Gentamicin | S | S | S | S | 
CN(C)c1cc(NC(=O)CNC(C)(C)C)c(O)c2c1C[C@H]1C[C@H]3[C@H](N(C)C)C(O)=C(C(N)=O)C(=O)[C@@]3(O)C(O)=C1C2=O [Tigecycline] | S | S |  |  | 
C[C@@H](O)[C@H]1C(=O)N2C(C(=O)O)=C(S[C@@H]3CN[C@H](C(=O)N(C)C)C3)[C@H](C)[C@H]12 [Meropenem] |  |  | S | S | Drug-resistance profile (E. coli): S
CC(C)(O/N=C(\C(=O)N[C@@H]1C(=O)N2C(C(=O)[O-])=C(C[n+]3ccccc3)CS[C@H]12)c1csc(N)n1)C(=O)O [Ceftazidime] |  |  | S | S | Drug-resistance profile (E. coli): S
